Data reported in patent publication US20080009418A1, “Selective Inhibitors” (Alchemia LTD., priority 2004, published 2008).

Columns and labels:
Human κ-Opioid (KOP) = molecular target: T1, Human κ-Opioid (KOP) (Homo sapiens, UniProt P41145); experiment: Radioligand binding, human κ-opioid (KOP) membranes, filtration, [3H]-Diprenorphine; conditions: compound at 10 μM, [3H]-Diprenorphine
T1 construct: purchased Perkin Elmer Biosignal
In short: (§1)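 Percent inhibition of radioligand binding measured on recombinant human membranes: NK1 with [125I]-Substance P, KOP with [3H]-Diprenorphine. Incubation 1 h at room temperature, then harvest onto 0.3% PEI-soaked filters, cold Tris-HCl pH 7.4 washes and scintillation counting; non-specific binding from reference ligand wells.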

Mouse urotensin (mUR2) = molecular target: T2, Mouse urotensin (mUR2) (Mus musculus, UniProt Q8VIH9); experiment: Radioligand binding, mouse urotensin mUR2 membranes, FlashPlate, [125I]-Urotensin II; conditions: compound at 10 μM, [125I]-Urotensin II
T2 construct: purchased Perkin Elmer Biosignal
T2 sequence (Q8VIH9 1-385): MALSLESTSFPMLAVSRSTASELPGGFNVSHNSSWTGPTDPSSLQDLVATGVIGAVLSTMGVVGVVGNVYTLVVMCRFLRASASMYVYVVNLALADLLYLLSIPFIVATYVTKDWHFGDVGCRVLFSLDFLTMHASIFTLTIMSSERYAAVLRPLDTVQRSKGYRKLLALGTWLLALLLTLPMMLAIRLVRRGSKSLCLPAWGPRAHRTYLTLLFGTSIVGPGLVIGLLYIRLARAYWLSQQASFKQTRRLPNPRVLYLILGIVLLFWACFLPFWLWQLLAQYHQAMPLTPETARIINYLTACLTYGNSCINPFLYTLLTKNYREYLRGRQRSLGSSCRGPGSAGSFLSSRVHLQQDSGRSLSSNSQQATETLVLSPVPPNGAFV
In short: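 Cloned mouse urotensin (mUR2) receptor membranes from Perkin Elmer Biosignal were immobilized in FlashPlate microplates using a proprietary coating. Each well got 19.5 μl buffer, then 0.5 μl of DMSO, reference ligand, or compound. Adding 5 μl of [125I]-Urotensin II, diluted to 5× final concentration in binding buffer, started binding. Plates were sealed with TopSeal-A and incubated 1 hour at room temperature in the dark. Wells were counted for 30 seconds each on a TopCount after a 60-second delay, and percentage inhibition was calculated.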

Human Melanocortin (MC3) = molecular target: T3, Human Melanocortin (MC3) (Homo sapiens, UniProt P41968); experiment: Radioligand binding, human melanocortin MC3 membranes, FlashPlate, [125I]-NDP-αMSH; conditions: compound at 10 μM, [125I]-NDP-αMSH
T3 construct: purchased Perkin Elmer Biosignal
In short: (§2)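 Cloned human receptor membranes were coated onto FlashPlate wells and incubated with radioligand and compound (added from a 0.5 mM DMSO daughter plate) for 1 hour at room temperature in the dark. Scintillation counting gave percent inhibition, with DMSO defining total and reference ligand defining non-specific binding.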

Human δ-opioid (DOP) = molecular target: T4, Human δ-opioid (DOP) (Homo sapiens, UniProt P41143); experiment: Radioligand binding, human δ-opioid (DOP) membranes, FlashPlate, [3H]-Bremazocine; conditions: compound at 10 μM, [3H]-Bremazocine
T4 construct: purchased Perkin Elmer Biosignal
In short: as §2

[1] = molecular target: T5, Human neuropeptide Y (NPY-Y1) (Homo sapiens, UniProt P25929); experiment: Radioligand binding, human neuropeptide Y NPY-Y1 membranes, FlashPlate, [125I]-PYY; conditions: compound at 10 μM, [125I]-PYY
T5 construct: purchased Perkin Elmer Biosignal
T5 sequence (P25929 1-384): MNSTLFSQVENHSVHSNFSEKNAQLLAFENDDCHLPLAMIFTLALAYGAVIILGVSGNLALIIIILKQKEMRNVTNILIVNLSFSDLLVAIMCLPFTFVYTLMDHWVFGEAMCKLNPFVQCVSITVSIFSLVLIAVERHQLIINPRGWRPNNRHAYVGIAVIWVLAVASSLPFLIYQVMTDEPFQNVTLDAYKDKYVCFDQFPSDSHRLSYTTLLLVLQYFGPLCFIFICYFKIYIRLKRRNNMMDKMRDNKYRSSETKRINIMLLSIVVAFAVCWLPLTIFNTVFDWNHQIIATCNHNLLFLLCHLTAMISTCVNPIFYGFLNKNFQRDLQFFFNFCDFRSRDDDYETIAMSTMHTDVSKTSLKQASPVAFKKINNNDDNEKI
In short: as §2

Human melanocortin (MC5) = molecular target: T6, Human melanocortin (MC5) (Homo sapiens, UniProt P33032); experiment: Radioligand binding, human melanocortin MC5 membranes, FlashPlate, [125I]-NDP-αMSH; conditions: compound at 10 μM, [125I]-NDP-αMSH
T6 construct: purchased Perkin Elmer Biosignal
In short: as §2

Human opioid (ORL1) = molecular target: T7, Human opioid (ORL1) (Homo sapiens, UniProt P41146); experiment: Radioligand binding, human opioid ORL1 membranes, FlashPlate, [125I]-Nociceptin; conditions: compound at 10 μM, [125I]-Nociceptin
T7 construct: purchased Perkin Elmer Biosignal
In short: as §2

Human neurokinin (NK1) = molecular target: T8, Human neurokinin (NK1) (Homo sapiens, UniProt P25103); experiment: Radioligand binding, human neurokinin NK1 membranes, filtration, [125I]-Substance P; conditions: compound at 10 μM, [125I]-Substance P
T8 construct: purchased Perkin Elmer Biosignal
In short: as §1

Human μ-opioid (MOP) = molecular target: T9, Human μ-opioid (MOP) (Homo sapiens, UniProt P35372); experiment: Radioligand binding, human μ-opioid (MOP) membranes, FlashPlate, [3H]-Naloxone; conditions: compound at 10 μM, [3H]-Naloxone
T9 construct: purchased Perkin Elmer Biosignal
In short: as §2

Human Melanocortin (MC4) = molecular target: T10, Human Melanocortin (MC4) (Homo sapiens, UniProt P32245); experiment: Radioligand binding, human melanocortin MC4 membranes, FlashPlate, [125I]-NDP-αMSH; conditions: compound at 10 μM, [125I]-NDP-αMSH
T10 construct: purchased Perkin Elmer Biosignal
In short: as §2

[2] = molecular target: T11, Human melanin-concentrating hormone (MCH1) (Homo sapiens, UniProt Q99705); experiment: Radioligand binding, human melanin-concentrating hormone MCH1 membranes, FlashPlate, [125I]-S36057; conditions: compound at 10 μM; for A6 radioligand binding, percentage inhibition: [125I]-S36057
T11 construct: purchased Perkin Elmer Biosignal
In short: as §2

[3] = [125I]-S36057, human MCH1 membranes

T11 sequence (Q99705 whole entry): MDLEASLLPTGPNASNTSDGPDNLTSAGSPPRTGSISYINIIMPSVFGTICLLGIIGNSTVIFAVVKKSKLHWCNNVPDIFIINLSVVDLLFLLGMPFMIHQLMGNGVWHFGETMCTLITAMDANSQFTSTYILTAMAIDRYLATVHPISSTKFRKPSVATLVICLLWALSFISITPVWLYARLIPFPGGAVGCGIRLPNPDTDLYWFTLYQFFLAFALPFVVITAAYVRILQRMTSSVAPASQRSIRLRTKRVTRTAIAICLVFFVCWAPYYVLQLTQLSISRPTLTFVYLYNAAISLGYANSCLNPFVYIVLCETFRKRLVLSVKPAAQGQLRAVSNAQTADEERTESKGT
T7 sequence (P41146 whole entry): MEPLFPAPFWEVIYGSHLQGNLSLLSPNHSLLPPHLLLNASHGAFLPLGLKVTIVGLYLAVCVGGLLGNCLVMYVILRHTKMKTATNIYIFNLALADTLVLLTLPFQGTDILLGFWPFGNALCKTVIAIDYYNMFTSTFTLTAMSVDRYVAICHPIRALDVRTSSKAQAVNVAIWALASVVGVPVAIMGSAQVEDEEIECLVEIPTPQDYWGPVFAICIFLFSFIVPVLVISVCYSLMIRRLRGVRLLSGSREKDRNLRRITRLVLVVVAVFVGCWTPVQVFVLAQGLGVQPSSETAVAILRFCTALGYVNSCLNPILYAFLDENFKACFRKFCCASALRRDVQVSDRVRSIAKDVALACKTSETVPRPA
T1 sequence (P41145 whole entry): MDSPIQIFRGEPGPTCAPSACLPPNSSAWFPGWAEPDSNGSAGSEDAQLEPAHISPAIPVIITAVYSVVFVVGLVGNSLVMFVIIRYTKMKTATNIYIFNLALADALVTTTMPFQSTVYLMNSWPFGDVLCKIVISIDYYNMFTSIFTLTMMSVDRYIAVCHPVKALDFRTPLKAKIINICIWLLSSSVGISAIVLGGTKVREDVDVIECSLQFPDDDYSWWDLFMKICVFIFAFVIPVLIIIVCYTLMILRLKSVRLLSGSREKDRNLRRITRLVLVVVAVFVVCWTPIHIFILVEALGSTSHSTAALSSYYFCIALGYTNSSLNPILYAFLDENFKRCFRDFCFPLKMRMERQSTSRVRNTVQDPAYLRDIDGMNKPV
T6 sequence (P33032 whole entry): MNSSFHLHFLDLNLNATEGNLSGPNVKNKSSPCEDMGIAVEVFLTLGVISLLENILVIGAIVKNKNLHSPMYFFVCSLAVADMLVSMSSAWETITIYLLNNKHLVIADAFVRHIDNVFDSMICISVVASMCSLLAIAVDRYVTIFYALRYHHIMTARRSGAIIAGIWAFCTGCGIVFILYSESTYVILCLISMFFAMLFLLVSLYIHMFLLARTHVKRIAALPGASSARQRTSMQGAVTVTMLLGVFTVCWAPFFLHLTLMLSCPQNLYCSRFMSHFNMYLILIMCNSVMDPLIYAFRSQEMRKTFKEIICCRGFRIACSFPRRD
T8 sequence (P25103 whole entry): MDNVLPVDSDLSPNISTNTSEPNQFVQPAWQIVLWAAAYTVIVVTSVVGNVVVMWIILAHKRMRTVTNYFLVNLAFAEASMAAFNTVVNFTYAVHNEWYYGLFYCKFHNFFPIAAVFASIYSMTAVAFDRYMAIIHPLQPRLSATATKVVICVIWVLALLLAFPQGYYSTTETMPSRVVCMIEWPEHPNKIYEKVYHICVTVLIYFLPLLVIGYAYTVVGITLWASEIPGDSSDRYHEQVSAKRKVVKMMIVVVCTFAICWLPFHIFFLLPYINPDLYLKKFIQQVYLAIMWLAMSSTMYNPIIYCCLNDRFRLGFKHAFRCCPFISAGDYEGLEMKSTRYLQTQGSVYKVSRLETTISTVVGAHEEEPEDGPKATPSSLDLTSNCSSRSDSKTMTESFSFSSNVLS
T10 sequence (P32245 whole entry): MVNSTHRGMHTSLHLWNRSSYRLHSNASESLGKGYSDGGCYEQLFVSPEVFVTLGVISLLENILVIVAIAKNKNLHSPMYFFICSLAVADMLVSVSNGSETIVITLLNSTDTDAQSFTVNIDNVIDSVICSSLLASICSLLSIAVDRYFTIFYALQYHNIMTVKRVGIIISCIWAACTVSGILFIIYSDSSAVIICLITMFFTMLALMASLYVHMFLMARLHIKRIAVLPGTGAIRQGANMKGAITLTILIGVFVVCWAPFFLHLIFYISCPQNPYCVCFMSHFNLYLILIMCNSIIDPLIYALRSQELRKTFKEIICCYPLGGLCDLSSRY
T3 sequence (P41968 whole entry): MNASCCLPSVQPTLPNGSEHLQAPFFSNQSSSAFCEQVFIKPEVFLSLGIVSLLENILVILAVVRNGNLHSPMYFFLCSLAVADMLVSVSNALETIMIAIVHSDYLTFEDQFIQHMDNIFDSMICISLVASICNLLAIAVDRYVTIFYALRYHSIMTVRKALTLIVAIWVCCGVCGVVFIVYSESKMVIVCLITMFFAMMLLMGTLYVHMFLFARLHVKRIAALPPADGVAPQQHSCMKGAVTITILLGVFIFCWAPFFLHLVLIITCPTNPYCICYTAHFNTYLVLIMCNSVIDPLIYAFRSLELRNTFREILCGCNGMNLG
T4 sequence (P41143 whole entry): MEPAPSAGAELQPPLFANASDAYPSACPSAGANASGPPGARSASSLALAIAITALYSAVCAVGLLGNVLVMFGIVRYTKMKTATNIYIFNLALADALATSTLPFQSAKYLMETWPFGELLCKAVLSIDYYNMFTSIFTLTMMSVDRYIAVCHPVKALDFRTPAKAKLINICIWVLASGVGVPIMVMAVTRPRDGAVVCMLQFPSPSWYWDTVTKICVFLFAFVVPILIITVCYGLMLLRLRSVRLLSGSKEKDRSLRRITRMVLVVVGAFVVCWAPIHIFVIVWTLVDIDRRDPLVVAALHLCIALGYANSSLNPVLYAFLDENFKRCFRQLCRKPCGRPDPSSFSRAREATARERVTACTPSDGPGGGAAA
T9 sequence (P35372 whole entry): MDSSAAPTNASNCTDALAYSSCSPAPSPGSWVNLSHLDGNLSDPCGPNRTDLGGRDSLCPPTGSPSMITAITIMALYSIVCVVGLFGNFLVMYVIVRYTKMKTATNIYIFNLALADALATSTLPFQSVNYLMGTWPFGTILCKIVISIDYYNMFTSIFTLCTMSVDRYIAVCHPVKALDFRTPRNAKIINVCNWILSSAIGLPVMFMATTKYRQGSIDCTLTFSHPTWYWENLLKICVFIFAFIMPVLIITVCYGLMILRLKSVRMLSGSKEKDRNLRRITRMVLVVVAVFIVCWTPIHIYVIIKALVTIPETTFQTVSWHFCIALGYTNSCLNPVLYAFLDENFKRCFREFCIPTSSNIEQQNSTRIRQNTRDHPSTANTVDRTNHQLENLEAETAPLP

| Structure (SMILES) | A2: inhibition of radioligand binding (Human κ-Opioid (KOP); human KOP membranes) | A11: inhibition of radioligand binding (Mouse urotensin (mUR2); mouse mUR2 membranes) | A3: inhibition of radioligand binding (Human Melanocortin (MC3); human MC3 membranes) | A1: inhibition of radioligand binding (Human δ-opioid (DOP); human DOP membranes) | A9: inhibition of radioligand binding ([1]; human NPY-Y1 membranes) | A5: inhibition of radioligand binding (Human melanocortin (MC5); human MC5 membranes) | A10: inhibition of radioligand binding (Human opioid (ORL1); human ORL1 membranes) | A8: inhibition of radioligand binding (Human neurokinin (NK1); human NK1 membranes) | A7: inhibition of radioligand binding (Human μ-opioid (MOP); human MOP membranes) | A4: inhibition of radioligand binding (Human Melanocortin (MC4); human MC4 membranes) | A6: inhibition of radioligand binding [2, 3] | A2 radioligand binding, percentage inhibition (Human κ-Opioid (KOP)) | A11 radioligand binding, percentage inhibition (Mouse urotensin (mUR2)) | A3 radioligand binding, percentage inhibition (Human Melanocortin (MC3)) | A1 radioligand binding, percentage inhibition (Human δ-opioid (DOP)) | A9 radioligand binding, percentage inhibition [1] | A5 radioligand binding, percentage inhibition (Human melanocortin (MC5)) | A10 radioligand binding, percentage inhibition (Human opioid (ORL1)) | A8 radioligand binding, percentage inhibition (Human neurokinin (NK1)) | A7 radioligand binding, percentage inhibition (Human μ-opioid (MOP)) | also measured |
| --- | --- | --- | --- | --- | --- | --- | --- | --- | --- | --- | --- | --- | --- | --- | --- | --- | --- | --- | --- | --- | --- |
| N=C(N)NCCC(=O)NC1C(OCc2ccc(Cl)cc2)OC(COCc2ccccc2)C(O)C1OCc1ccc(-c2ccccc2)cc1 (stereo not shown) [compound 433] | − (“−” indicates less than 50% inhibition at 10 μM) | − (“−” indicates less than 50% inhibition at 10 μM) | − (“−” indicates less than 50% inhibition at 10 μM) | − (“−” indicates less than 50% inhibition at 10 μM) | − (“−” indicates less than 50% inhibition at 10 μM) | + (“+” indicates greater than 50% inhibition at 10 μM) | − (“−” indicates less than 50% inhibition at 10 μM) | + (“+” indicates greater than 50% inhibition at 10 μM) | − (“−” indicates less than 50% inhibition at 10 μM) | + (“+” indicates greater than 50% inhibition at 10 μM) | + (“+” indicates greater than 50% inhibition at 10 μM) | – | – | – | – | – | – | – | – | – | – |
| CSC1OC(COCc2ccc3ccccc3c2)C(O)C(OCc2ccccc2)C1NC(=O)CCNC(=N)N (stereo not shown) [compound 262] | – | – | – | – | – | – | – | – | – | – | – | – | – | – | – | – | – | – | – | – | A2: inhibition of radioligand binding (Human κ-Opioid (KOP); filtration): − (“−” indicates less than 50% inhibition at 10 μM); A11: inhibition of radioligand binding (Mouse urotensin (mUR2); FlashPlate): − (“−” indicates less than 50% inhibition at 10 μM); A3: inhibition of radioligand binding (Human Melanocortin (MC3); FlashPlate): − (“−” indicates less than 50% inhibition at 10 μM); A1: inhibition of radioligand binding (Human δ-opioid (DOP); FlashPlate): − (“−” indicates less than 50% inhibition at 10 μM); A9: inhibition of radioligand binding ([1]; FlashPlate): − (“−” indicates less than 50% inhibition at 10 μM); A5: inhibition of radioligand binding (Human melanocortin (MC5); FlashPlate): + (“+” indicates greater than 50% inhibition at 10 μM); A10: inhibition of radioligand binding (Human opioid (ORL1); FlashPlate): − (“−” indicates less than 50% inhibition at 10 μM); A8: inhibition of radioligand binding (Human neurokinin (NK1); filtration): + (“+” indicates greater than 50% inhibition at 10 μM); A7: inhibition of radioligand binding (Human μ-opioid (MOP); FlashPlate): − (“−” indicates less than 50% inhibition at 10 μM); A4: inhibition of radioligand binding (Human Melanocortin (MC4); FlashPlate): − (“−” indicates less than 50% inhibition at 10 μM); A6: inhibition of radioligand binding ([2]; [125I]-S36057, FlashPlate): − (“−” indicates less than 50% inhibition at 10 μM) |
| COC[C@H]1OC(OCc2cccc(O)c2)[C@H](NC(=O)CCCN)[C@@H](OCc2ccc(-c3ccccc3)cc2)[C@@H]1O (stereo partly shown) [compound 143] | – | – | – | – | – | – | – | – | – | – | – | − (“−” indicates less than 50% inhibition at 10 μM) | − (“−” indicates less than 50% inhibition at 10 μM) | − (“−” indicates less than 50% inhibition at 10 μM) | − (“−” indicates less than 50% inhibition at 10 μM) | − (“−” indicates less than 50% inhibition at 10 μM) | − (“−” indicates less than 50% inhibition at 10 μM) | − (“−” indicates less than 50% inhibition at 10 μM) | + (“+” indicates greater than 50% inhibition at 10 μM) | + (“+” indicates greater than 50% inhibition at 10 μM) | A4 radioligand binding, percentage inhibition (Human Melanocortin (MC4)): − (“−” indicates less than 50% inhibition at 10 μM); A6 radioligand binding, percentage inhibition [2]: − (“−” indicates less than 50% inhibition at 10 μM) |
| COCC1OC(OCc2ccccc2)C(NC(=O)CCCNC(=N)N)C(OCc2ccc(Cl)cc2)C1O (stereo not shown) [compound 181] | – | – | – | – | – | – | – | – | – | – | – | − (“−” indicates less than 50% inhibition at 10 μM) | − (“−” indicates less than 50% inhibition at 10 μM) | − (“−” indicates less than 50% inhibition at 10 μM) | − (“−” indicates less than 50% inhibition at 10 μM) | − (“−” indicates less than 50% inhibition at 10 μM) | + (“+” indicates greater than 50% inhibition at 10 μM) | − (“−” indicates less than 50% inhibition at 10 μM) | + (“+” indicates greater than 50% inhibition at 10 μM) | − (“−” indicates less than 50% inhibition at 10 μM) | A4 radioligand binding, percentage inhibition (Human Melanocortin (MC4)): + (“+” indicates greater than 50% inhibition at 10 μM); A6 radioligand binding, percentage inhibition [2]: + (“+” indicates greater than 50% inhibition at 10 μM) |
| N=C(N)NCC(=O)NC1C(OCc2ccc(-c3ccccc3)cc2)OC(COCc2ccc(Cl)cc2)C(O)C1OCc1ccc(-c2ccccc2)cc1 (stereo not shown) [compound 407] | − (“−” indicates less than 50% inhibition at 10 μM) | − (“−” indicates less than 50% inhibition at 10 μM) | + (“+” indicates greater than 50% inhibition at 10 μM) | − (“−” indicates less than 50% inhibition at 10 μM) | − (“−” indicates less than 50% inhibition at 10 μM) | + (“+” indicates greater than 50% inhibition at 10 μM) | + (“+” indicates greater than 50% inhibition at 10 μM) | + (“+” indicates greater than 50% inhibition at 10 μM) | − (“−” indicates less than 50% inhibition at 10 μM) | + (“+” indicates greater than 50% inhibition at 10 μM) | + (“+” indicates greater than 50% inhibition at 10 μM) | – | – | – | – | – | – | – | – | – | – |
